From patent publication US8975263B2, “Phenylxanthene derivatives” (Daiichi Sankyo Company, Limited, priority 2013, dated 2015)

system: C57BL/6J mice; assay: Oral glucose tolerance test; assay type: in vivo; conditions: male C57BL/6J mice, fasted overnight; oral gavage 10 mg/kg; solvent 0.5% MC; glucose 3 g/kg orally 30 minutes after compound; area under the curve of blood glucose level relative to control group
Protocol: Commercially available mice (C57BL/6J mice; male; 8 to 12 weeks old when used; distributed by Charles River Laboratories Japan, Inc.) were used.
After acclimatization with freely feeding (FR-2, Funabashi Farm Co., Ltd.) for one week or more, the mice were fasted overnight and then used for the test. A 0.5% methylcellulose (Wako Pure Chemical Industries, Ltd.) solution (0.5% MC) containing a test compound at a concentration of 1 mg/ml and a mixed solution (PG:Tween) of propylene glycol (80 v/v %, Nacalai Tesque, Inc.) and Tween 80 (20 v/v %, Nacalai Tesque, Inc.) containing a test compound at a concentration of 2 mg/ml were prepared for administration to the mice. The prepared solution was administered by oral gavage to four or five mice in each group at a dose of 10 mg/kg as the test compound. For a control group, a 0.5% methylcellulose solution (dose: 10 ml/kg) or a mixed solution of propylene glycol and Tween 80 (dose: 5 ml/kg) was orally administered to mice. An oral glucose tolerance test was carried out by administering a glucose solution (Otsuka Glucose Solution 50%; Otsuka Pharmaceutical Factory, Inc.) orally at a dose of 3 g/kg to the mice 30 minutes after administration of the test compound.
Blood was collected from the tail vein of each mouse immediately before administration of the test compound (T0), […] after administration of the test compound (T1), and 30 minutes (T2) and 90 minutes (T3) after oral glucose loading. The blood glucose level was measured using a blood glucose level measuring apparatus (ACCU-CHEK Aviva; Roche Diagnostics, K.K.). The blood glucose level T1 was analyzed as a value obtained 30 minutes after administration of the compound and immediately before glucose loading. According to the following formula, the area under the curve of blood glucose level was calculated, and thereafter, the blood glucose lowering rate (%) was calculated as a value relative to the control group. The area under the curve of blood glucose level=[(blood glucose level T0+blood glucose level T1)×30]÷2+[(blood glucose level T1+blood glucose level T2)×30]÷2+[(blood glucose level T2+blood glucose level T3)×60]÷2 Blood glucose lowering rate(%)=[1−(the area under the curve of blood glucose level for the test compound group/the area under the curve of blood glucose level for the control group)]×100

| SMILES | Blood glucose lowering rate (%) |
| --- | --- |
| COCCOc1ccc(-c2ccc(OC)c(C3C4=C(CC(C)(C)CC4=O)OC4=C3C(=O)CC(C)(C)C4)c2C)nc1C(=O)O [Example 29, 3-(2-Methoxyethoxy)-6-[4-methoxy-2-methyl-3-(3,3,6,6-tetramethyl-1,8-dioxo-2,3,4,5,6,7,8,9-octahydro-1H-xanthen-9-yl)phenyl]pyridine-2-carboxylic acid] | 32 |
| COc1ccc(-c2ccc(C)c(C(=O)O)n2)cc1C1C2=C(CC(C)(C)CC2=O)OC2=C1C(=O)CC(C)(C)C2 [Example 30, 6-[4-Methoxy-3-(3,3,6,6-tetramethyl-1,8-dioxo-2,3,4,5,6,7,8,9-octahydro-1H-xanthen-9-yl)phenyl]-3-methylpyridine-2-carboxylic acid] | 55 |
| COc1ccc(-c2ccc(C)c(C(=O)NS(C)(=O)=O)n2)cc1C1C2=C(CC(C)(C)CC2=O)OC2=C1C(=O)CC(C)(C)C2 [Example 31, 6-[4-Methoxy-3-(3,3,6,6-tetramethyl-1,8-dioxo-2,3,4,5,6,7,8,9-octahydro-1H-xanthen-9-yl)phenyl]-3-methyl-N-(methylsulfonyl)pyridine-2-carboxamide] | 42 |
| COc1ccc(-c2cc(C)cc(C(=O)O)n2)c(C)c1C1C2=C(CC(C)(C)CC2=O)OC2=C1C(=O)CC(C)(C)C2 [Example 32, 6-[4-Methoxy-2-methyl-3-(3,3,6,6-tetramethyl-1,8-dioxo-2,3,4,5,6,7,8,9-octahydro-1H-xanthen-9-yl)phenyl]-4-methylpyridine-2-carboxylic acid] | 59 |
| COc1ccc(-c2nc(C(=O)O)ccc2C)c(C)c1C1C2=C(CC(C)(C)CC2=O)OC2=C1C(=O)CC(C)(C)C2 [Example 34, 6-[4-Methoxy-2-methyl-3-(3,3,6,6-tetramethyl-1,8-dioxo-2,3,4,5,6,7,8,9-octahydro-1H-xanthen-9-yl)phenyl]-5-methylpyridine-2-carboxylic acid] | 58 |
| COc1ccc(-c2ccc(C)c(C(=O)NS(C)(=O)=O)n2)cc1C1C2=C(CC(C)(C)CC2=O)OC2=C1C(=O)CC(C)(C)C2.[K] [Example 35, 6-[4-Methoxy-3-(3,3,6,6-tetramethyl-1,8-dioxo-2,3,4,5,6,7,8,9-octahydro-1H-xanthen-9-yl)phenyl]-3-methyl-N-(methylsulfonyl)pyridine-2-carboxamide potassium salt] | 52 |
| COc1ccc(-c2cc(C)cc(C(=O)NS(C)(=O)=O)n2)c(C)c1C1C2=C(CC(C)(C)CC2=O)OC2=C1C(=O)CC(C)(C)C2 [Example 40, 6-[4-Methoxy-2-methyl-3-(3,3,6,6-tetramethyl-1,8-dioxo-2,3,4,5,6,7,8,9-octahydro-1H-xanthen-9-yl)phenyl]-4-methyl-N-(methylsulfonyl)pyridine-2-carboxamide] | 38 |
| CC(C)(C)N.COc1ccc(-c2ccc(C)c(C(=O)NS(C)(=O)=O)n2)c(C)c1C1C2=C(CC(C)(C)CC2=O)OC2=C1C(=O)CC(C)(C)C2 [Example 41, 6-[4-Methoxy-2-methyl-3-(3,3,6,6-tetramethyl-1,8-dioxo-2,3,4,5,6,7,8,9-octahydro-1H-xanthen-9-yl)phenyl]-3-methyl-N-(methylsulfonyl)pyridine-2-carboxamide 2-methylpropan-2-amine salt] | 44 |
| CC(C)(C)N.COc1ccc(-c2cc(C)cc(C(=O)NS(C)(=O)=O)n2)c(C)c1C1C2=C(CC(C)(C)CC2=O)OC2=C1C(=O)CC(C)(C)C2 [Example 42, 6-[4-Methoxy-2-methyl-3-(3,3,6,6-tetramethyl-1,8-dioxo-2,3,4,5,6,7,8,9-octahydro-1H-xanthen-9-yl)phenyl]-4-methyl-N-(methylsulfonyl)pyridine-2-carboxamide 2-methylpropan-2-amine salt] | 44 |
| COc1ccc(-c2cc(C)c(C)c(C(=O)O)n2)c(C)c1C1C2=C(CC(C)(C)CC2=O)OC2=C1C(=O)CC(C)(C)C2 [Example 43, 6-[4-Methoxy-2-methyl-3-(3,3,6,6-tetramethyl-1,8-dioxo-2,3,4,5,6,7,8,9-octahydro-1H-xanthen-9-yl)phenyl]-3,4-dimethylpyridine-2-carboxylic acid] | 60 |
| COc1ccc(-c2cc(C)c(C)c(C(=O)NS(C)(=O)=O)n2)c(C)c1C1C2=C(CC(C)(C)CC2=O)OC2=C1C(=O)CC(C)(C)C2 [Example 44, 6-[4-Methoxy-2-methyl-3-(3,3,6,6-tetramethyl-1,8-dioxo-2,3,4,5,6,7,8,9-octahydro-1H-xanthen-9-yl)phenyl]-3,4-dimethyl-N-(methylsulfonyl)pyridine-2-carboxamide] | 44 |
| CCc1ccc(-c2ccc(OC)c(C3C4=C(CC(C)(C)CC4=O)OC4=C3C(=O)CC(C)(C)C4)c2)nc1C(=O)O [Example 45, 3-Ethyl-6-[4-methoxy-3-(3,3,6,6-tetramethyl-1,8-dioxo-2,3,4,5,6,7,8,9-octahydro-1H-xanthen-9-yl)phenyl]pyridine-2-carboxylic acid] | 42 |
| CCc1ccc(-c2ccc(OC)c(C3C4=C(CC(C)(C)CC4=O)OC4=C3C(=O)CC(C)(C)C4)c2)nc1C(=O)NS(C)(=O)=O [Example 46, 3-Ethyl-6-[4-methoxy-3-(3,3,6,6-tetramethyl-1,8-dioxo-2,3,4,5,6,7,8,9-octahydro-1H-xanthen-9-yl)phenyl]-N-(methylsulfonyl)pyridine-2-carboxamide] | 47 |
| COc1ccc(-c2cc3c(c(C(=O)O)n2)CCCC3)c(C)c1C1C2=C(CC(C)(C)CC2=O)OC2=C1C(=O)CC(C)(C)C2 [Example 47, 3-[4-Methoxy-2-methyl-3-(3,3,6,6-tetramethyl-1,8-dioxo-2,3,4,5,6,7,8,9-octahydro-1H-xanthen-9-yl)phenyl]-5,6,7,8-tetrahydroisoquinoline-1-carboxylic acid] | 56 |
| COc1ccc(-c2ccc(N)c(C(=O)O)n2)c(C)c1C1C2=C(CC(C)(C)CC2=O)OC2=C1C(=O)CC(C)(C)C2 [Example 48, 3-Amino-6-[4-methoxy-2-methyl-3-(3,3,6,6-tetramethyl-1,8-dioxo-2,3,4,5,6,7,8,9-octahydro-1H-xanthen-9-yl)phenyl]pyridine-2-carboxylic acid] | 62 |
| COc1ccc(-c2ccc(N)c(C(=O)NS(C)(=O)=O)n2)c(C)c1C1C2=C(CC(C)(C)CC2=O)OC2=C1C(=O)CC(C)(C)C2 [Example 49, 3-Amino-6-[4-methoxy-2-methyl-3-(3,3,6,6-tetramethyl-1,8-dioxo-2,3,4,5,6,7,8,9-octahydro-1H-xanthen-9-yl)phenyl]-N-(methylsulfonyl)pyridine-2-carboxamide] | 34 |
| COc1ccc(-c2ccc(N)c(C(=O)O)n2)cc1C1C2=C(CC(C)(C)CC2=O)OC2=C1C(=O)CC(C)(C)C2 [Example 51, 3-Amino-6-[4-methoxy-3-(3,3,6,6-tetramethyl-1,8-dioxo-2,3,4,5,6,7,8,9-octahydro-1H-xanthen-9-yl)phenyl]pyridine-2-carboxylic acid] | 39 |
| COc1ccc(-c2ccc(N)c(C(=O)NS(C)(=O)=O)n2)cc1C1C2=C(CC(C)(C)CC2=O)OC2=C1C(=O)CC(C)(C)C2 [Example 52, 3-Amino-6-[4-methoxy-3-(3,3,6,6-tetramethyl-1,8-dioxo-2,3,4,5,6,7,8,9-octahydro-1H-xanthen-9-yl)phenyl]-N-(methylsulfonyl)pyridine-2-carboxamide] | 44 |
| CNc1ccc(-c2ccc(OC)c(C3C4=C(CC(C)(C)CC4=O)OC4=C3C(=O)CC(C)(C)C4)c2C)nc1C(=O)O [Example 53, 6-[4-Methoxy-2-methyl-3-(3,3,6,6-tetramethyl-1,8-dioxo-2,3,4,5,6,7,8,9-octahydro-1H-xanthen-9-yl)phenyl]-3-(methylamino)pyridine-2-carboxylic acid] | 64 |

same assay, conditions: male C57BL/6J mice, fasted overnight; oral gavage 10 mg/kg; solvent PG:Tween; glucose 3 g/kg orally 30 minutes after compound; area under the curve of blood glucose level relative to control group

| SMILES | Blood glucose lowering rate (%) |
| --- | --- |
| CCOc1ccc(-c2ccc(OC)c(C3C4=C(CC(C)(C)CC4=O)OC4=C3C(=O)CC(C)(C)C4)c2C)nc1C(=O)O [Example 28, 3-Ethoxy-6-[4-methoxy-2-methyl-3-(3,3,6,6-tetramethyl-1,8-dioxo-2,3,4,5,6,7,8,9-octahydro-1H-xanthen-9-yl)phenyl]pyridine-2-carboxylic acid] | 60 |
